Among the data in PubChem BioAssay AID330 (DTP/NCI, 2004) are T/C values, retold here.

The test deals with P388 leukemia ip, CD2F1 mice, survival T/C. In words: NCI In Vivo Anticancer Drug Screen. Data for tumor model P388 Leukemia (intraperitoneal) in CD2F1 (CDF1) mice. As to conditions: endpoint: median survival time, higher = longer survival. The method in brief: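 Mice carrying the transplanted tumor received test compound or vehicle. Survival was recorded in each group, and the value is the treated-group measurement divided by that of the vehicle-treated control group.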

Where [1] appears, read: dose: 50.0 mg/kg/injection, schedule: Q01DX005 (ip), vehicle: Klucel (hydroxypropylcellulose) (HPC).
The mark [2] stands for this setting: dose: 100.0 mg/kg/injection, schedule: Q01DX005 (ip), vehicle: Klucel (hydroxypropylcellulose) (HPC).
[3] abbreviates: dose: 200.0 mg/kg/injection, schedule: Q01DX005 (ip), vehicle: Klucel (hydroxypropylcellulose) (HPC).
Setting [4] is: dose: 12.5 mg/kg/injection, schedule: Q01DX009 (ip), vehicle: saline with Tween-80.
The mark [5] stands for this setting: dose: 25.0 mg/kg/injection, schedule: Q01DX009 (ip), vehicle: saline with Tween-80.
Where [6] appears, read: dose: 50.0 mg/kg/injection, schedule: Q01DX009 (ip), vehicle: saline with Tween-80.
Setting [7] is: dose: 50.0 mg/kg/injection, schedule: Q01DX009 (ip), vehicle: saline.
Where [8] appears, read: dose: 100.0 mg/kg/injection, schedule: Q01DX009 (ip), vehicle: saline.
The mark [9] stands for this setting: dose: 25.0 mg/kg/injection, schedule: Q01DX009 (ip), vehicle: saline.
The mark [10] stands for this setting: dose: 200.0 mg/kg/injection, schedule: Q01DX009 (ip), vehicle: saline.
Setting [11] is: dose: 100.0 mg/kg/injection, schedule: Q04DX003 (ip), vehicle: Klucel (hydroxypropylcellulose) (HPC).
Setting [12] is: dose: 60.0 mg/kg/injection, schedule: Q01DX005 (ip), vehicle: saline with Tween-80.
Setting [13] is: dose: 120.0 mg/kg/injection, schedule: Q01DX005 (ip), vehicle: saline with Tween-80.
Where [14] appears, read: dose: 240.0 mg/kg/injection, schedule: Q01DX005 (ip), vehicle: saline with Tween-80.
Setting [15] is: dose: 100.0 mg/kg/injection, schedule: Q01DX009 (ip), vehicle: saline with Tween-80.
The mark [16] stands for this setting: dose: 200.0 mg/kg/injection, schedule: Q01DX009 (ip), vehicle: saline with Tween-80.
The mark [17] stands for this setting: dose: 50.0 mg/kg/injection, schedule: Q01DX005 (ip), vehicle: saline with Tween-80.
Setting [18] is: dose: 100.0 mg/kg/injection, schedule: Q01DX009 (ip), vehicle: Klucel (hydroxypropylcellulose) (HPC).
Where [19] appears, read: dose: 50.0 mg/kg/injection, schedule: Q01DX005 (ip), vehicle: saline.
[20] abbreviates: dose: 12.5 mg/kg/injection, schedule: Q01DX005 (ip), vehicle: saline with Tween-80.
Where [21] appears, read: dose: 25.0 mg/kg/injection, schedule: Q01DX005 (ip), vehicle: saline with Tween-80.

Values joined by “and” are separate entries in the source; they are usually repeats but may differ in a detail not shown here. Equal entries are not always repeated. Inconclusive results and toxic doses are left out.

On to `Cc1cc(Br)ccc1N1C(=O)CC(Sc2ccccc2N)C1=O` (stereo not given), for which the T/C is 88 % of control under setting [1], 95 % of control under setting [2] and 100 % of control under setting [3].

Turning to `c1ccc2cc3c4c(ccc3cc2c1)CCCCCC4`, the T/C is 86 % of control under setting [4], 112 % of control under setting [5] and 105 % of control under setting [6].

For `[CH3][Ge]([CH3])[c]1ccccc1`, the T/C is 101 % of control under setting [7] and 95 % of control under setting [8].

Regarding `CC(=O)c1c(O)cc2c(c1O)C1CC(C)(CCC1=C(C)C)O2` (stereo not given), the T/C reads like this: (dose: 6.25 mg/kg/injection, schedule: Q01DX009 (ip), vehicle: saline) 105 % of control; (dose: 12.5 mg/kg/injection, schedule: Q01DX009 (ip), vehicle: saline) 105 % of control; under setting [9], 107 % of control; under setting [8], 90 % of control; under setting [10], 89 % of control.

As to `CC[As](CC)SC1CCC2(C)C(=CCC3C4CCC(=O)C4(C)CCC32)C1` (stereo not given), the T/C by setting is: (dose: 12.5 mg/kg/injection, schedule: Q01DX009 (ip), vehicle: distilled water + Tween-80) 105 % of control; (dose: 25.0 mg/kg/injection, schedule: Q01DX009 (ip), vehicle: distilled water + Tween-80) 100 % of control and 117 % of control; (dose: 50.0 mg/kg/injection, schedule: Q01DX009 (ip), vehicle: distilled water + Tween-80) 120 % of control; (dose: 100.0 mg/kg/injection, schedule: Q01DX009 (ip), vehicle: distilled water + Tween-80) 156 % of control.

Take `CCN1C(=O)NC(=O)C(CC)(N2CCCCC2)C1=O` (stereo not given): the T/C by setting is: under setting [1], 111 % of control; under setting [2], 98 % of control; under setting [3], 104 % of control.

In the case of `COc1c2ccncc2c(C)c2c1[nH]c1ccccc12`, the T/C was 98 % of control (dose: 6.25 mg/kg/injection, schedule: Q04DX002 (ip), vehicle: distilled water + Tween-80); 94 % of control (dose: 12.5 mg/kg/injection, schedule: Q04DX002 (ip), vehicle: distilled water + Tween-80); 94 % of control (dose: 25.0 mg/kg/injection, schedule: Q04DX002 (ip), vehicle: distilled water + Tween-80); 89 % of control (dose: 50.0 mg/kg/injection, schedule: Q04DX002 (ip), vehicle: distilled water + Tween-80); 89 % of control (dose: 100.0 mg/kg/injection, schedule: Q04DX002 (ip), vehicle: distilled water + Tween-80); 88 % of control (dose: 200.0 mg/kg/injection, schedule: Q04DX002 (ip), vehicle: distilled water + Tween-80).

Turning to `Cc1c2ccccc2c(C)c2c1cc(F)c1ccccc12`, the T/C by setting is: (dose: 50.0 mg/kg/injection, schedule: Q04DX003 (ip), vehicle: Klucel (hydroxypropylcellulose) (HPC)) 105 % of control; under setting [11], 105 % of control; (dose: 200.0 mg/kg/injection, schedule: Q04DX003 (ip), vehicle: Klucel (hydroxypropylcellulose) (HPC)) 113 % of control; (dose: 400.0 mg/kg/injection, schedule: Q04DX003 (ip), vehicle: Klucel (hydroxypropylcellulose) (HPC)) 117 % of control.

Turning to `CC(=O)Nn1c(N)nc2cc(C)ccc21`, the T/C by setting is: (dose: 200.0 mg/kg/injection, schedule: Q01DX001 (ip), vehicle: saline) 98 % of control; (dose: 400.0 mg/kg/injection, schedule: Q01DX001 (ip), vehicle: saline) 93 % of control.

Consider `Cn1ncc2c(=O)[nH]c(-c3ccccc3)nc21`, for which the T/C runs as follows: under setting [12], 105 % of control; under setting [13], 96 % of control; under setting [14], 105 % of control.

With `Oc1c(Cl)cc(C(c2cc(Cl)c(O)c(Cl)c2)C(c2cc(Cl)c(O)c(Cl)c2)c2cc(Cl)c(O)c(Cl)c2)cc1Cl`, the T/C under setting [11] was 115 % of control.

Regarding `COc1cc2c(cc1O)C(=O)CCC=C2`, the T/C was 103 % of control under setting [6], 101 % of control under setting [15] and 108 % of control under setting [16].

As to `c1cnc(NC(Nc2cnccn2)C2CCCCC2)cn1`, the T/C reads like this: (dose: 60.0 mg/kg/injection, schedule: Q01DX005 (ip), vehicle: Klucel (hydroxypropylcellulose) (HPC)) 96 % of control; (dose: 120.0 mg/kg/injection, schedule: Q01DX005 (ip), vehicle: Klucel (hydroxypropylcellulose) (HPC)) 100 % of control; (dose: 240.0 mg/kg/injection, schedule: Q01DX005 (ip), vehicle: Klucel (hydroxypropylcellulose) (HPC)) 107 % of control.

On to `C[N+]1(CC(=O)O)C2CCC1CC(O)C2` (stereo not given), for which the T/C under setting [9] was 108 % of control; the T/C under setting [7] was 98 % of control and 100 % of control; the T/C under setting [8] was 101 % of control; the T/C under setting [10] was 101 % of control and 96 % of control.

Regarding `Cc1ccc(S(=O)(=O)OCC2OC(OC3(CO)OC(COS(=O)(=O)c4ccc(C)cc4)C(O)C3O)C(O)C(O)C2O)cc1` (stereo not given), the T/C runs as follows: under setting [6], 100 % of control; under setting [15], 98 % of control; under setting [16], 99 % of control.

For `C=C(C)C(=O)Oc1ccccc1/C=C/C(=O)CCCCCC`, the T/C is 98 % of control under setting [17]; 96 % of control (dose: 100.0 mg/kg/injection, schedule: Q01DX005 (ip), vehicle: saline with Tween-80); 88 % of control (dose: 200.0 mg/kg/injection, schedule: Q01DX005 (ip), vehicle: saline with Tween-80).

For `Nc1nc(=O)n(C2CCCCO2)cc1Br` (stereo not given), the T/C is 104 % of control under setting [1], 109 % of control under setting [2] and 97 % of control under setting [3].

Take `NC(=S)N/N=C/c1nc2ccccn2c1[N+](=O)[O-]`: the T/C under setting [18] was 86 % of control.

`CCN1NC1C` (stereo not given): the T/C runs as follows: under setting [19], 105 % of control; (dose: 100.0 mg/kg/injection, schedule: Q01DX005 (ip), vehicle: saline) 97 % of control; (dose: 200.0 mg/kg/injection, schedule: Q01DX005 (ip), vehicle: saline) 97 % of control.

For `CCN(CC)c1ccc2c(c1)Oc1cc(N(CC)CC)ccc1C21c2ccccc2C(=O)N1c1ccccc1`, the T/C is, setting by setting: under setting [1], 98 % of control; under setting [2], 99 % of control; under setting [3], 103 % of control.

Regarding `CC(=O)[OH+]c1c(Br)cc(Br)cc1C(=O)[O-].CC(=O)[OH+]c1c(Br)cc(Br)cc1C(=O)[O-].[Cu+2]`, the T/C is 101 % of control under setting [20], 100 % of control under setting [21] and 102 % of control under setting [19].

Consider `CCC[CH2][Sn]1([CH2]CCC)[O]CC[S]1`, for which the T/C (dose: 3.12 mg/kg/injection, schedule: Q01DX009 (ip), vehicle: Klucel (hydroxypropylcellulose) (HPC)) is 116 % of control.

As to `COc1cc(-c2n[nH]c(=O)o2)cc(OC)c1OC`, the T/C runs as follows: (dose: 50.0 mg/kg/injection, schedule: Q01DX009 (ip), vehicle: Klucel (hydroxypropylcellulose) (HPC)) 105 % of control; under setting [18], 100 % of control; (dose: 200.0 mg/kg/injection, schedule: Q01DX009 (ip), vehicle: Klucel (hydroxypropylcellulose) (HPC)) 105 % of control.

Turning to `O=C(O)CCc1c(-c2ccccc2)[nH]c2ccccc12`, the T/C reads like this: (dose: 60.0 mg/kg/injection, schedule: Q01DX005 (ip), vehicle: Klucel + Tween-80) 100 % of control; (dose: 120.0 mg/kg/injection, schedule: Q01DX005 (ip), vehicle: Klucel + Tween-80) 100 % of control; (dose: 240.0 mg/kg/injection, schedule: Q01DX005 (ip), vehicle: Klucel + Tween-80) 100 % of control.

Consider `NC(=O)c1c(-c2ccccc2)cn2c(C(=O)O)ccnc12`, for which the T/C runs as follows: under setting [12], 98 % of control; under setting [13], 98 % of control; under setting [14], 102 % of control.

Regarding `NC1=C(C(=O)c2ccccc2)CCCC1`, the T/C was 106 % of control under setting [7], 97 % of control under setting [8] and 97 % of control under setting [10].

Take `COC(=O)C1(OC(C)=O)C(=O)NC2=C1C(=O)c1ccccc1C2=O` (stereo not given): the T/C by setting is: under setting [20], 102 % of control; under setting [21], 104 % of control; under setting [17], 110 % of control and 113 % of control.

As for `O=C(O)c1cccc(-n2ncc(Cl)c(Cl)c2=O)c1`, the T/C under setting [4] is 113 % of control; the T/C under setting [5] is 108 % of control; the T/C under setting [6] was 99 % of control and 104 % of control; the T/C under setting [16] is 88 % of control.
